From publication PMC8391236, “Effect of Pterostilbene, a Natural Derivative of Resveratrol, in the Treatment of Colorectal Cancer through Top1/Tdp1-Mediated DNA Repair Pathway” (Cancers, 2021)

Key:
siRNA-Top1 CL187 cells [1] = assay: Cell viability of Top1-silenced cells; format: cell-based; settings: Homo sapiens, 36 h, siRNA-Top1 CL187, 36 h
siRNA-Top1 CL187 cells [2] = assay: Apoptosis by flow cytometry; format: cell-based, Human; settings: 48 h
Description: (§1) Exponentially growing CL187 cells were seeded in 6-well plates (1.2 × 10^6 cells/well) until a well was filled with cells. The RE or PTE at various concentrations were added separately into plate wells and incubated with cells for 48 h. The incubated cells were collected and treated by Annexin V-FITC/PI Apoptosis Detection Kit. The stained cells were analyzed with a flow cytometer (Becton-Dickinson, Franklin Lakes, NJ, USA), and data analyses were performed with BD Cell Quest^TM pro 6.0..

Tdp1-over CL187 cells [3] = assay: Apoptosis by flow cytometry; format: cell-based, Human; settings: 48 h
Description: as §1

siRNA-Tdp1 CL187 cells = assay: Apoptosis by flow cytometry; format: cell-based, Human; settings: 48 h
Description: as §1

Top1 [4] = target: T1, Top1 (Homo sapiens, UniProt P11387); assay: Direct Top1 enzyme activity (DNA relaxation) assay; format: biochemical; settings: gel electrophoresis
T1 construct: purchased TopoGEN, Buena Vista, CO, USA
T1 sequence (P11387 1-765): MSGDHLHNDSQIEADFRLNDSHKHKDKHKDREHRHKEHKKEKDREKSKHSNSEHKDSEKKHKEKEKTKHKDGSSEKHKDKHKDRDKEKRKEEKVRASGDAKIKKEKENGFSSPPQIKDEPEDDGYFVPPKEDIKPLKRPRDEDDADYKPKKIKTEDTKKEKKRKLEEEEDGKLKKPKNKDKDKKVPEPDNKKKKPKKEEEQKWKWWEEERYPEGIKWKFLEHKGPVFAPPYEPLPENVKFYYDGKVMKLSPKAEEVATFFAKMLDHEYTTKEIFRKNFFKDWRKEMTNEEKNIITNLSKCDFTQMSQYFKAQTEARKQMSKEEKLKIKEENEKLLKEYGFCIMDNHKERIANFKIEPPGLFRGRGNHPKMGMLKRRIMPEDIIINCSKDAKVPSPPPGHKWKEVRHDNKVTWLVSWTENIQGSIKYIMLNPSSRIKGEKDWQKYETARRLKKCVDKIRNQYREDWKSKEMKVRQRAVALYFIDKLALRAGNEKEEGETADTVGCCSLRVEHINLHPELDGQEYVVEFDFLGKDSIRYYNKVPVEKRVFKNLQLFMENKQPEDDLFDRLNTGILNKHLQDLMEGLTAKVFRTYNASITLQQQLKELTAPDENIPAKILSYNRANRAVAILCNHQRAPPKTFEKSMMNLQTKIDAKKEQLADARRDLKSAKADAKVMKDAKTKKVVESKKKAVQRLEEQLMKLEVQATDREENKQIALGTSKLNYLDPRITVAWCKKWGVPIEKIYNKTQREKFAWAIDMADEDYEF
Description: Different concentrations of the drug solution were prepared. The solvent was used as negative control group, and CPT (50 μM) was used as the positive control group. Each sample included 2 units of Top1 (TopoGEN, Buena Vista, CO, USA) and 250 ng super helical DNA (pHOT-1, TopoGEN, Buena Vista, CO, USA). The samples were incubated for 30 min at 37 °C, and then the reaction was stopped with SDS. After digestion with proteinase K (50 μg/mL, 60 min at 37 °C), samples were separated through electrophoresis (1% agarose gel). The electrophoresis was conducted at 180 V constant pressure for 20 min. The gel was immersed in the dye without EB for 30 min, and the images were collected by gel imaging system (Tanon-1600B, Shanghai, China).

CL187 cells = assay: Apoptosis by flow cytometry (Annexin V-FITC/PI); format: cell-based, Human; settings: 48 h
Description: as §1

Tdp1-over CL187 cells [5] = assay: Cell viability of Tdp1-overexpressing cells; format: cell-based, Human
Description: CL187 cells were cultured on 6-cm dishes at 37 °C for 24 h. The plasmid (2.5 μg) was diluted with 125 μL serum-free medium Opti-MEM, mixed gently, and incubated at room temperature for 5 min. Lipo 3000 (Invitrogen, Waltham, MA, USA) were diluted with 125 μL serum-free medium Opti-MEM, mixed and incubated for 5 min. Mixed the plasmid and Lipo 3000, incubated at room temperature for 20 min, the mixture was added to CL187 cells, the Tdp1 overexpressed plasmid were transfected into CL187 cells.
PTE or RE were dissolved in DMSO and diluted with culture medium to 1–100 μM. The final concentration of DMSO was less than 0.1%, and 0.1% DMSO as negative control. CPT, as Top1 inhibitor, was diluted to 0.5 μM [36, 37], and FM, as Tdp1 inhibitor was diluted to 25 μM [38]. Exponentially growing cells were seeded in 96-well plates (5 × 10^3 cells/well) for 12 h. […] Cell viability was determined by CCK-8 (Beyotime Biotechnology, Shanghai, China) assay. Cell viability and inhibition rate were calculated with the following formulae:Cell viability (%) = [OD450 (sample)/OD450 (control)] × 100(1) Inhibition rate (%) = […] − cell viability (%)(2)
The drug concentration required for inhibiting cell proliferation by 50% (IC50) was determined by interpolation from dose-response curves.

Top1 [6] = assay: Western blot of Top1 protein in cells; format: cell-based, Human; settings: 6 h
Description: CL187 cells were treated with RE or PTE for 6 or 12 h, collected, and placed into lysis buffer (KeyGEN BioTECH, Nanjing, China). The total protein content in the cell lysates was measured using a BCA kit. Equivalent amount of total protein (30 μg) was loaded onto 10% SDS-PAGE gel. Electrophoresis was performed at 80 V for 25 min. After the sample went through concentrated gel, the voltage was adjusted to 120 V. Electrophoresis was stopped when the bromophenol blue band approached the bottom of the gel. After being transferred to PVDF membranes, the samples were incubated separately with 3 types of primary antibodies Top1, Tdp1, and P53 rabbit mAb (CST, Boston, MA, USA), followed by the incubation with secondary antibody goat anti-rabbit IgG (HRP)-conjugated (1:3000). ECL kit (New Cell and Molecular Biotech, Suzhou, China) was used for color development, and the images were collected by the gel imaging system (Tanon-5200, Shanghai, China).

## COc1cc(/C=C/c2ccc(O)cc2)cc(OC)c1 [PTE, 3,5-dimethoxy-4′-hydroxy-trans-stilbene]
siRNA-Top1 CL187 cells [1]
  IC50: 49 ± 10.1 µM
siRNA-Top1 CL187 cells [2]; siRNA-Top1 CL187, 10 μM
  cell apoptotic proportion: 25.29%
siRNA-Top1 CL187 cells [2]; siRNA-Top1 CL187, 20 μM
  cell apoptotic proportion: 29.42%
siRNA-Top1 CL187 cells [2]; siRNA-Top1 CL187, 50 μM
  cell apoptotic proportion: 33.93%
Tdp1-over CL187 cells [3]; Tdp1-over CL187, 10 μM
  cell apoptotic proportion: 26.80%
Tdp1-over CL187 cells [3]; Tdp1-over CL187, 20 μM
  cell apoptotic proportion: 31.81%
Tdp1-over CL187 cells [3]; Tdp1-over CL187, 50 μM
  cell apoptotic proportion: 32.87%
siRNA-Tdp1 CL187 cells; siRNA-Tdp1 CL187, 10 μM
  cell apoptotic proportion: 18.16%
siRNA-Tdp1 CL187 cells; siRNA-Tdp1 CL187, 20 μM
  cell apoptotic proportion: 20.92%
siRNA-Tdp1 CL187 cells; siRNA-Tdp1 CL187, 50 μM
  cell apoptotic proportion: 24.38%
Top1 [4]; 30 min incubation, CPT at 50 uM
  inhibition of Top1 enzyme activity (SC DNA relaxation): had the ability to inhibit Top1 enzyme activity in a dose-dependent manner
Top1 [4]; relaxation of supercoiled pHOT-1 DNA, 30 min
  concentration exhibiting the same inhibitory effect on Top1 enzyme activity: 20 µM
CL187 cells; CL187, 10 μM
  apoptosis rate (early and late apoptotic cells): 28.95%
CL187 cells; CL187, 20 μM
  apoptosis rate (early and late apoptotic cells): 29.69%
CL187 cells; CL187, 50 μM
  apoptosis rate (early and late apoptotic cells): 25.76%
Tdp1-over CL187 cells [5]; Homo sapiens, 24 h, Tdp1-over CL187, 24 h
  IC50: 63 ± 13.6 µM
Tdp1-over CL187 cells [5]; Homo sapiens, 36 h, Tdp1-over CL187, 36 h
  IC50: 41.1 ± 7.22 µM
Tdp1-over CL187 cells [5]; Homo sapiens, 48 h, Tdp1-over CL187, 48 h
  IC50: 20.3 ± 3.13 µM
Tdp1-over CL187 cells [5]; Homo sapiens, 72 h, Tdp1-over CL187, 72 h
  IC50: 19.1 ± 4.08 µM
Tdp1-over CL187 cells [5]; Tdp1-over CL187, 72 h
  IC50: ~20 µM
Top1 [6]; Tdp1-over CL187 cells
  Top1 protein content: reduced in dese-dependent manner
Top1 [6]; siRNA-Tdp1 CL187 cells
  Top1 protein content: significantly decreased
Top1 [6]; wild-type CL187 cells
  Top1 protein content: decreased in PTE treatment group, but neither in dese-dependent and significant manner
